Measurements published in PMC8910697, “Development of VPC-70619, a Small-Molecule N-Myc Inhibitor as a Potential Therapy for Neuroendocrine Prostate Cancer” (International Journal of Molecular Sciences, 2022).
pIC50: −log10 of the molar value.

Experiments:
Format in all cases: cell-based
[1] = tested on: N-Myc-Max transcription activity (LNCaP-NMYC cells); assay: Myc transcription assay (Cignal Myc reporter, luciferase) in LNCaP-NMYC cells; parameters: 10 uM corrected / 5uM corrected: unit not given here; conditions: for transcription inhibition activity (in words): screened at 10 µM and 5 µM; for inhibition at 5 µM / inhibition at 10 µM: 24 h; for inhibition at 5 µM: read-out: % Transcript Inhibition (5 µM); for inhibition at 10 µM: read-out: % Transcript Inhibition (10 µM); for 5uM corrected / 10 uM corrected: sheet 181_set; for pIC50: Homo sapiens, LNCaP, Table 2, transcriptional assay in LNCaP cells overexpressing N-Myc, read-out: IC50
Method: To determine the optimal substitutions on the free phenyl ring, we used the active scaffold for a second substructure search against the ZINC15 database to identify a set of 181 analogues for further validation (VPC-70617 to -70799, presented in Supplementary Table S1). Compounds were tested for their inhibition of a N-Myc-Max luciferase transcription activity assay at 5 and 10 µM Figure 2a. Herein, we inspected all the proposed substitutions on the scaffold to discern the features required to construct a possible SAR model for inhibitors targeting N-Myc-Max/DBD complex (Figure 2b).
LNCaP-NMYC cells were transfected using TransIT-2020 transfection reagents per the manufacturer’s protocol. Cells were plated at a density of 10,000 cells per well of a 96-well plate. Following 24 h treatment with 5 µM or 10 µM of the compounds, the Myc reporter activity was measured using the Cignal Myc Reporter Assay Kit from Qiagen (#336841) (Hilden, Germany) per the manufacturer’s instructions.

[2] = tested on: IMR32 cells; assay: Cell viability (CellTiter-Glo), IMR32; conditions: Homo sapiens, IMR-32
Method: (§1) The 54 compounds were tested at 10 µM for their inhibition of the IMR32 human neuroblastoma cell line, in which the MYCN gene is amplified and actively expressed (Table 3). HO15.19 cell line (Myc-negative) was used in parallel as a compound specificity control.
(§2) Viability of N-Myc positive (IMR32and NCI-H660) and negative (HO15.19) cells were determined using the CellTiter-Glo Luminescent Cell Viability Assay (Promega cat. G7570) (Madison, WI, USA). Cells were seeded into a 96-well white plate with a clear bottom: 10,000 cells per well for the IMR32 cells cultured in EMEM supplemented with 10% FBS, 2000 HO15.19 cells per well in Eagle’s minimum essential medium (EMEM) supplemented with 10% FBS, and 2000 cells per well for the NCI-H660 neuroendocrine cells cultured in RPMI supplemented 5% FBS, 1% Insulin-Transferrin-Selenium (Thermo Fisher, 41400-045), 10nM b-estradiol (Sigma, E8875), 10nM hydrocortisone (Sigma H0888) and 1% matrigel. Following 24 h incubation, the cells were treated with serial dilutions of the derivatives along with the respective parental compound starting at 25 μM for 72 h. Cell Titer Glo was added to each well at a ratio of 1:1 and incubated on a shaker at RT for 2 min. Luminescence and IC50 was measured with the TECAN InfiniteM200 plate reader (Männedorf, Switzerland).

[3] = tested on: HO15.19 cells; assay: Cell viability counter-screen (CellTiter-Glo), Myc-negative HO15.19; conditions: Rattus norvegicus, HO15.19, 10 µM; Myc-negative specificity control
Method: as §1, §2

SMILES | transcription inhibition activity (in words) ([1]; LNCaP-NMYC) | inhibition at 10 µM [2] | inhibition at 10 µM [3] | further results
N#Cc1ccc(NNC(=O)c2ccc(F)c(I)c2)c(C(F)(F)F)c1 [compound 70726] | strong increase in inhibition activity | 75.6% | 66.2% | 
N#Cc1ccc(NNC(=O)c2cc(F)cc(C(F)(F)F)c2)c(C(F)(F)F)c1 [compound 70794] | better inhibition activity | 89.2% | 80.7% | 
N#Cc1ccc(NNC(=O)c2ccc(Cl)cc2C(F)(F)F)c(C(F)(F)F)c1 [compound 70706] | activity was maintained | 54.3% | 65.6% | 
N#Cc1ccc(NNC(=O)c2cc(OC(F)F)cc(OC(F)F)c2)c(C(F)(F)F)c1 [compound 70792] | maintained good transcription inhibition activity | 84.9% | 79.5% | 
N#Cc1cccc(C(=O)NNc2ccc(C#N)cc2C(F)(F)F)c1 [compound 70672] |  | 18% | 8.1% | 
N#Cc1ccc(NNC(=O)c2cc(Cl)cc(Cl)c2)c(C(F)(F)F)c1 [compound 70652] | very strong transcription inhibition | 92.5% | 80.7% | 
N#Cc1ccc(NNC(=O)c2cc(Cl)cc(Br)c2F)c(C(F)(F)F)c1 [compound 70768] | high transcription inhibition activity | 35.3% | 39.8% | 
CC(C)(c1ccc(C(=O)NNc2ccc(C#N)cc2C(F)(F)F)cc1)C(F)(F)F [compound 70733] | active | 57.4% | 57.8% | 
N#Cc1ccc(NNC(=O)c2cc(F)c(Cl)cc2F)c(C(F)(F)F)c1 [compound 70741] | recovered the inhibition activity | 16.4% | 14.5% | 
N#Cc1ccc(NNC(=O)c2cc(C(F)(F)F)ccc2F)c(C(F)(F)F)c1 [compound 70769] | high transcription inhibition activity | 32.2% | 28.2% | 
N#Cc1ccc(NNC(=O)c2cc(Cl)cc(Br)c2)c(C(F)(F)F)c1 [compound 70650] | very strong transcription inhibition | 92.1% | 80.2% | 
N#Cc1ccc(NNC(=O)c2cc(Cl)cc(C(F)(F)F)c2)c(C(F)(F)F)c1 [compound 70722] | very strong transcription inhibition | 94.7% | 79.3% | 
N#Cc1ccc(NNC(=O)c2c(O)cc(Cl)cc2Cl)c(C(F)(F)F)c1 [compound 70719] | recovered the inhibition activity | 95% | 76.5% | 
N#Cc1ccc(NNC(=O)c2ccc(Cl)cc2O)c(C(F)(F)F)c1 [compound 70633] | activity was maintained | 93.6% | 77% | 
N#Cc1ccc(NNC(=O)c2cc(F)cc(Cl)c2)c(C(F)(F)F)c1 [compound 70644] | better inhibition activity | 88.3% | 69.5% | 
N#Cc1ccc(NNC(=O)c2cc(F)c(Br)c(Cl)c2)c(C(F)(F)F)c1 [compound 70775] | strong increase in inhibition activity | 62.4% | 65.1% | 

SMILES | transcription inhibition activity (in words) ([1]; LNCaP-NMYC) | inhibition at 10 µM [2] | inhibition at 10 µM [3] | further results
N#Cc1ccc(NNC(=O)c2cc(F)cc(F)c2)c(C(F)(F)F)c1 [compound 70639] | better inhibition activity | 60.2% | 66.1% | 
COc1cc(Cl)cc(C(=O)NNc2ccc(C#N)cc2C(F)(F)F)c1 [compound 70700] | better inhibition activity | 60.5% | 42% | 
N#Cc1ccc(NNC(=O)c2cc(Cl)cc([N+](=O)[O-])c2)c(C(F)(F)F)c1 [compound 70761] | better inhibition activity | 93.3% | 81% | 
N#Cc1ccc(NNC(=O)c2ccc(Br)c(Cl)c2)c(C(F)(F)F)c1 [compound 70635] | strong increase in inhibition activity | 7.5% | 11.8% | 
N#Cc1ccc(NNC(=O)c2cc(C(F)(F)F)cc(C(F)(F)F)c2)c(C(F)(F)F)c1 [compound 70756] | better inhibition activity | 95.7% | 84.1% | 
N#Cc1ccc(NNC(=O)c2ccc(F)c(Cl)c2)c(C(F)(F)F)c1 [compound 70680] | strong increase in inhibition activity | 52.9% | 64% | 
N#Cc1ccc(NNC(=O)c2ccc(C(F)(F)F)c(Cl)c2)c(C(F)(F)F)c1 [compound 70705] | good inhibition at both concentrations tested | 60.7% | 61.8% | 
N#Cc1ccc(NNC(=O)c2cc(F)c(Cl)c(F)c2)c(C(F)(F)F)c1 [compound 70767] | strong increase in inhibition activity | 31.6% | 40.3% | 
N#Cc1ccc(NNC(=O)c2cc(Cl)cc(F)c2Br)c(C(F)(F)F)c1 [compound 70776] | high transcription inhibition activity | 27.4% | 26.1% | 
CC(F)(F)c1ccc(C(=O)NNc2ccccc2C(F)(F)F)cc1 [compound 70606] |  |  |  | inhibition at 5 µM ([1]; 5 µM, LNCaP-NMYC): 0%; inhibition at 10 µM ([1]; LNCaP-NMYC): -10%
N#Cc1ccc(NNC(=O)c2ccccc2Cl)c(C(F)(F)F)c1 [compound 70701] | declined considerably or was lost completely |  |  | 5uM corrected [1]: -28; 10 uM corrected [1]: 6
CS(=O)(=O)c1cc(C(=O)NNc2ccc(C#N)cc2C(F)(F)F)ccc1Cl [compound 70721] |  |  |  | 5uM corrected [1]: -42; 10 uM corrected [1]: 2; transcription inhibition activity at 5 µM (in words) ([1]; LNCaP-NMYC, 5 µM): did not impart any inhibitory activity
N#Cc1ccc(NNC(=O)c2ccc(SC(F)F)cc2)c(C(F)(F)F)c1 [compound 70682] |  | 11% | 22.9% | 
N#Cc1ccc(NNC(=O)c2ccc(Cl)cc2)c(C(F)(F)F)c1 [compound 70599] | significantly more active |  |  | inhibition at 5 µM ([1]; 5 µM, LNCaP-NMYC): 96%; inhibition at 10 µM ([1]; LNCaP-NMYC): 78%; pIC50 [1]: 5.52
C#Cc1ccc(C(=O)NNc2ccc(C#N)cc2C(F)(F)F)cc1 [compound 70582] |  |  |  | inhibition at 5 µM ([1]; 5 µM, LNCaP-NMYC): 44%; inhibition at 10 µM ([1]; LNCaP-NMYC): 84%; pIC50 [1]: 5.10
